Reference: patent US5314910A, “Ester inhibitors” (Cortech Inc., priority 1993, dated 1994)

These compounds were tested against T1, human neutrophil elastase (HNE) (Homo sapiens, UniProt P08246) (assay: Potency (I50 Determination), HNE inhibition). Settings: substrate N-methoxysuccinyl-ala-ala-pro-val-pNA, pH 7.7, 7 minutes incubation at room temperature, 405 nm.
T1 sequence (P08246 30-267): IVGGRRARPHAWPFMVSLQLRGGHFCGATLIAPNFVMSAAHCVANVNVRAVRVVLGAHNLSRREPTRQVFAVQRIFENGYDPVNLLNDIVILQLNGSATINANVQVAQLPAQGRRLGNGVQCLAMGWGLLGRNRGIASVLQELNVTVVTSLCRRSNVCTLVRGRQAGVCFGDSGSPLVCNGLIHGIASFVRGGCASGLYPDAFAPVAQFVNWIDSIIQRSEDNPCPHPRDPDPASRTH
Assay type: biochemical
Protocol: Potency (I50 Determination)
A) 0.075 M sodium phosphate, 20% dimethyl sulfoxide (DMSO), pH 7.7=substrate and inhibitor buffer
B) 0.075 M sodium phosphate, no DMSO, pH 7.7=inhibitor buffer
C) 10 mM human neutrophil elastase (HNE) substrate=N-methoxysuccinyl-ala-ala-pro-val-pNA in DMSO
D) 0.01 M sodium acetate, 20% DMSO, pH 5.5=enzyme buffer (dilution)
E) 0.01 M sodium acetate, pH 5.5 enzyme buffer (storage)
F) HNE (1 mg) dissolved in 1 ML of reagent E for storage at -20° C.
Make a 10 mM stock of the inhibitor in DMSO. Dilute an aliquot (10 μL) up to 1.0 mL in reagent A (100 μM). Serially dilute 100 μL of the 100 μM stock to […], 1.0, 0.1, 0.01 μM in reagent A. Apply 100 μL of the diluted material to the wells of a 96-well plate. Dilute an aliquot of reagent F 1:150 in reagent D, apply 50 μL aliquots to the indicated wells and incubate for 7 minutes at room temperature.
The HNE substrate solution is made by taking 100 μL of reagent C into 500 μL of reagent A and 400 μL of reagent B. After the 7 minutes of incubation, the substrate (50 μL) is applied to each well. The HNE catalyzed reaction is then monitored spectrophotometrically at 405 nm using an ELISA plate reader machine (UVMAX, Molecular Devices) which processes the raw data with an on-board kinetics program. The enzyme activity is plotted against different inhibitor concentrations and the […] is determined by using a curve fitting software program. Once the "screening" I50 has been approximated, a more precise I50 value can be obtained by examination of inhibitor concentrations around this value.

Compared with `CCC(C(=O)Oc1ccc([N+](=O)[O-])cc1)c1ccsc1` (centres unmarked) [Compound 14], `CCC(C(=O)Oc1ccc([N+](=O)[O-])cc1)c1cccs1` (centres unmarked) [Compound 10] is 2.2-fold higher in IC50: 120 nM for the first, 270 nM for the second.

Compared with `CCC(C(=O)Oc1ccc(S(C)(=O)=O)cc1)c1cccn1C` (centres unmarked) [Compound 17, 4-Methylsulfonylphenyl 2-(1-Methyl-2-pyrrole)butyrate], `CCC(C(=O)Oc1ccc([N+](=O)[O-])cc1)c1cccn1C` (centres unmarked) [Compound 18] is 3.3-fold higher in IC50: 60 nM for the first, 200 nM for the second.

First: CCC(C(=O)Oc1ccc([S+](C)[O-])cc1)c1ccsc1 (centres unmarked) [Compound 12, 4-Methylsulfinylphenyl 2-(3-thiophene)butyrate]
Second: CCC(C(=O)Oc1ccc(SC)cc1)c1ccsc1 (centres unmarked) [Compound 11, 4-Methylmercaptophenyl 2-(3-thiophene)butyrate]
The IC50 of the first is 12-fold lower: 130 nM for the first, 1500 nM for the second.

Compared with `CCC(C(=O)Oc1ccc(SC)cc1)c1cccn1C` (centres unmarked) [Compound 15, 4-Methylmercaptophenyl 2-(1-Methyl-2-pyrrole)butyrate], `CCC(C(=O)Oc1ccc([S+](C)[O-])cc1)c1cccn1C` (centres unmarked) [Compound 16, 4-Methylsulfinylphenyl 2-(1-Methyl-2-pyrrole)butyrate] is 13-fold lower in IC50: 6200 nM for the first, 460 nM for the second.

Compared with `CCC(C(=O)Oc1ccc([S+]([O-])CC(C)(C)C(=O)O)cc1)c1cccn1C` (centres unmarked) [Compound 20, 4-(2,-Carboxy-2'-methylpropylsulfinyl)phenyl 2-(1-Methyl-2-pyrrole)butyrate], `CCC(C(=O)Oc1ccc(SCC(C)(C)C(=O)O)cc1)c1cccn1C` (centres unmarked) [Compound 19, 4-(2'-Carboxy-2'-methylpropylmercapto)phenyl 2-(1-Methyl-2-pyrrole)butyrate] is 3-fold lower in IC50: 590 nM for the first, 200 nM for the second.

First: CCC(C(=O)Oc1ccc(SC)cc1)c1c[nH]c2ccccc12 (centres unmarked) [Compound 21]
Second: CCC(C(=O)Oc1ccc([S+](C)[O-])cc1)c1c[nH]c2ccccc12 (centres unmarked) [Compound 22]
The IC50 of the first is 17-fold higher: 33000 nM for the first, 1900 nM for the second. The second is the more potent here.

First: CCC(C(=O)Oc1ccc(SC)cc1)c1coc2ccccc12 (centres unmarked) [Compound 4]
Second: CCC(C(=O)Oc1ccc([S+](C)[O-])cc1)c1coc2ccccc12 (centres unmarked) [Compound 5]
The IC50 of the first is 9-fold higher: 3800 nM for the first, 420 nM for the second. The second is the more potent here.

First: CCC(C(=O)Oc1ccc(S(C)(=O)=O)cc1)c1coc2ccccc12 (centres unmarked) [Compound 6]
Second: CCC(C(=O)Oc1ccc(S(C)(=O)=O)cc1)c1ccoc1 (centres unmarked) [Compound 3]
The IC50 of the first is 3.1-fold lower: 150 nM for the first, 470 nM for the second.

Going from `CCC(C(=O)Oc1ccc([S+](C)[O-])cc1)c1cccs1` (centres unmarked) [Compound 8] to `CCC(C(=O)Oc1ccc(SC)cc1)c1cccs1` (centres unmarked) [Compound 7], the IC50 rises from 430 nM to 3000 nM (7-fold).

Compared with `CCC(C(=O)Oc1ccc(S(C)(=O)=O)cc1)c1cccs1` (centres unmarked) [Compound 9], `CCC(C(=O)Oc1ccc(S(C)(=O)=O)cc1)c1ccsc1` (centres unmarked) [Compound 13, 4-Methylsulfonylphenyl 1-(3-thiophene)butyrate] is 5.8-fold lower in IC50: 290 nM for the first, 50 nM for the second. The second is the more potent here.

Going from `CCC(C(=O)Oc1ccc(SC)cc1)c1ccoc1` (centres unmarked) [Compound 1] to `CCC(C(=O)Oc1ccc([S+](C)[O-])cc1)c1ccoc1` (centres unmarked) [Compound 2], the IC50 falls from 6060 nM to 1440 nM (4.2-fold).

These compounds were tested on ischemia reperfusion injuries (myocardial infarct size) (assay: Ischemia reperfusion injury in dogs, myocardial infarct size). Settings: not given.
Assay type: in vivo, dog
Protocol: Experiments have been conducted on dogs to study the effect of the compounds of the invention in the treatment of ischemia reperfusion injuries.
The protocol used in the experiment referred to in the preceding paragraph involved the following:
Male mongrel dogs (13 to 17 kg) were anesthetized with sodium pentobarbital, 30 mg/kg i.v., intubated and ventilated with room air via a Harvard respirator. Lead II of the electrocardiogram and hemodynamics were monitored continuously throughout the course of the experiment. A catheter was inserted into the left carotid artery and advanced into the left ventricle for the continuous recording of left ventricular pressure. […] After 24 hr of reperfusion, the animal was reanesthetized, the thoracotomy incision opened, the heart fibrillated electrically and removed rapidly for postmortem quantification of infarct size.
Animals were randomized to receive either the test compound or a placebo (diluent) administered as an intracoronary infusion via a catheter inserted into the left circumflex coronary artery just distal to the point at which the vessel is occluded. The dose was determined on the basis of known pharmacokinetic data and the infusion was maintained throughout the 90 period of regional ischemia as well as during the 24 hour reperfusion period. […]

With `CCC(C(=O)Oc1ccc([S+](C)[O-])cc1)c1cccn1C` (centres unmarked) [Compound 16, 4-Methylsulfinylphenyl 2-(1-Methyl-2-pyrrole)butyrate] the “reduction in infarct size compared to the controls (in words)” value was “significant reduction in infarct size”.
